From patent publication US20250032488A1, “METHODS OF TREATMENT USING LOU064” (NOVARTIS AG, priority 2021, published 2025)
Like-named read-outs stand apart in the source and are kept apart here.

Legend:
BALB/c mice = assay: Ovalbumin induced anaphylaxis mouse model: BALF cell counts; format: in vivo; conditions: 10 mg/kg, 30 mg/Kg p.o. B.I.D., OVA-sensitized mice with poly I:C
Protocol: This experiment was carried out to investigate the anti-inflammatory effect of LOU064 (10 mg and 30 mg/Kg in OVA-sensitized mice instilleed with polyinosine-polycytidylic acid (poly I: C).
Mice were actively sensitised with ovalbumin (15 μg, s.c.) and 25 μL of Imject Alum on days 0, 7 and 14. In order to elicit a local inflammatory response in the lung, mice were repeatedly exposed on days 21-24 with an aerosol of 1% w/v ovalbumin in phosphate buffered saline (PBS), generated with an ultrasonic nebuliser (Aerogen) for 20 min. 16 h after the final exposure to OVA on day 24, polyinosine-polycytidylic acid (poly I: C, 100 μg/animal) or the vehicle (PBS) was delivered intratracheally with a Microsprayer (model IA-1C with FMJ-250 high pressure syringe, Penn-Century) under anaesthesia with ketamine (100 mg/Kg, i.p.) and xylazine (10 mg/Kg, i.p.). […]
24 h after the final OVA challenge, blood samples were collected by venepuncture into pre-chilled Li Hep tubes. […] The cell pellets were then re-suspended in 1.6 mL of phosphate buffered saline and the BAL cells were then analysed for total and differential numbers. Total and differential cell counts of the BAL fluid samples were measured using a XT-2000iV analyser (Sysmex). […]

subjects with CSU = assay: 52-week open label extension study in CSU: safety
Protocol: In a 52-week open label extension study to evaluate the long-term safety and tolerability of LOU064 in eligible subjects with CSU who participated in the Phase 2b study the dose used was 100 mg b.i.d.

BTK [1] = biological target: T1, BTK (Mus musculus, UniProt P35991); assay: BTK occupancy in spleen and lung, RPA study; format: in vivo, mice; conditions: single dose 30 mg/kg, 3 hours after eliciting the Arthus reaction
T1 construct: each spleen was crushed and lysed in a GentleMACS; from tissue; host or cells: mouse spleen (BALB/c, C57Bl6) and lung (C57Bl6)
T1 sequence (P35991 whole entry): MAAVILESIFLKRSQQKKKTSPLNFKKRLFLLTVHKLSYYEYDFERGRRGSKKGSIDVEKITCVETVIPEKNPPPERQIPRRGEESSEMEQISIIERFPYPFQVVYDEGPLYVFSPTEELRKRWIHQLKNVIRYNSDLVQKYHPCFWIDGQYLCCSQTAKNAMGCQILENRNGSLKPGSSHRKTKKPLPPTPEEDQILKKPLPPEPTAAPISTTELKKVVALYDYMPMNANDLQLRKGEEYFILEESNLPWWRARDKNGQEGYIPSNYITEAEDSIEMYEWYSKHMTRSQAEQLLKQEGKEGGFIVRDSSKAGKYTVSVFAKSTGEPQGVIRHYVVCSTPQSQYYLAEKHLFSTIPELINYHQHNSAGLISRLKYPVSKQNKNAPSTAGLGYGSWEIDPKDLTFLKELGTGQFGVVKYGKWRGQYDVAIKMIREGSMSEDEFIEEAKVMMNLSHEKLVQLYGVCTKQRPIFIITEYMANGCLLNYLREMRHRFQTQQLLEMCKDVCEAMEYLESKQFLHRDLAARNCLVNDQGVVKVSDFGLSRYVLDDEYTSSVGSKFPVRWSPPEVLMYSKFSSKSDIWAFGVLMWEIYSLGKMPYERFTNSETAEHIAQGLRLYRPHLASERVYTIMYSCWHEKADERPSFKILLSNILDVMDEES
Protocol: For BTK occupancy in spleen, the experiment was performed as described in the PCA example. For lung BTK occupancy, lysates were prepared from complete lungs including tracheas after perfusing the organs with saline to remove blood in the same manner as for spleen (except that the lysis buffer volume was 500 μl). The lung lysates were then analyzed for free BTK in a separate ELISA. This consisted of a capture step with anti-BTK (Cell Signaling Technologies, #8547, carrier free). Then the captured BTK protein was incubated with 1 μM of covalent biotinylated BTK probe for 1 hour at room temperature. The BTK-bound biotinylated probe was detected by with a streptavidin-HRP conjugate (Cell Signaling Technologies, #3999, used at a dilution of 1:1′000) and a chemiluminescence substrate (Supersignal ELISA Pico, Thermo Scientific, #37070). The luminescence values were corrected for ELISA background reads from control samples measured in absence of BTK capture antibody for the total BTK ELISA and in absence of probe for the BTK-bound ELISA, respectively. The relative BTK occupancy was calculated as the ratio of free BTK (signal of the covalent biotinylated probe bound BTK) to total BTK for each sample: R=free BTK/total BTK. The individual Ri values were then normalized to the vehicle group and expressed as percent occupancy: (average of Ri vehicle group−Ri)/(average of Ri vehicle group)*100%.

[2] = system: FccR1 mediated basophil activation; conditions: cited from earlier work
BTK [3] = biological target: T2, BTK (Homo sapiens, UniProt Q06187); assay: Translational PK/PD model: simulated BTK occupancy in human spleen/tissues; conditions: from prediction model of spleen BTK occupancy and HED
T2 construct: simulate BTK occupancy in human spleen/tissues across a range of doses; from tissue; host or cells: human spleen/tissues (simulated, not sampled)
T2 sequence (Q06187 whole entry): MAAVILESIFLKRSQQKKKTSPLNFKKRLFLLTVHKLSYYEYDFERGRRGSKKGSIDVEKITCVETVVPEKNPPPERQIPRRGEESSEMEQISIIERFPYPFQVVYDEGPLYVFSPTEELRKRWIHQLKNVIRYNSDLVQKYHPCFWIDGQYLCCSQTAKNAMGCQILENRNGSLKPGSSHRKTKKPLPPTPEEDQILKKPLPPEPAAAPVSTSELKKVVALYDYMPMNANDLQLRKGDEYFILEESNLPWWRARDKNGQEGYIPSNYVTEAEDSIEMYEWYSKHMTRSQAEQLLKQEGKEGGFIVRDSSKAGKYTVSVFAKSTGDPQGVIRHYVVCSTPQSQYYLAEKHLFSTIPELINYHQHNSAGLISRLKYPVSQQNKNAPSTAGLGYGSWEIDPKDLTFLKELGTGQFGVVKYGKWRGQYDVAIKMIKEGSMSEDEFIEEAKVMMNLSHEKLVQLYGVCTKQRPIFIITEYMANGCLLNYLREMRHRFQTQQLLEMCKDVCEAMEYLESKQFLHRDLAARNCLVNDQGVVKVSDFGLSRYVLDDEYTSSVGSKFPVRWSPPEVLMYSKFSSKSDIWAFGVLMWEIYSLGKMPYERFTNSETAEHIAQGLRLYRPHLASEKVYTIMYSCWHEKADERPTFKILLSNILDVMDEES
Description: The purpose of this analysis was to characterize the pharmacokinetics (PK) of LOU064 in healthy volunteers and to use a previously developed, translational target occupancy model to simulate BTK occupancy in human spleen/tissues across a range of doses and dosing regimen (B.I.D vs QD).
Pharmacokinetic data from a Phase I clinical study reported by Kaul et al. (2021) were used in the current analysis, including 102 patients.
A translational target occupancy model to simulate BTK occupancy in spleen/tissues was developed using a two-step approach.
In a first step, a population PK model was established to describe LOU064 PK data from Phase I clinical study reported by Kaul et al. (2021). In a second step, the parameter estimates from the population PK model were used in the BTK occupancy model to predict BTK occupancy in blood and spleen/tissues. Ultimately the BTK occupancy model was used to predict the BTK occupancy in spleen/tissues for different dosing regimens (QD, B.I.D) at different doses.

[4] = 100 mg B.I.D., N = 100, interim cut off 31 Aug. 2020
[5] = ES, 100 mg b.i.d., N = 183, median 35.14 wks, listed as remibrutinib

C=CC(=O)N(C)CCOc1c(N)ncnc1-c1cc(F)cc(NC(=O)c2ccc(C3CC3)cc2F)c1C [LOU064, N-(3-(6-amino-5-(2-(N-methylacrylamido)ethoxy)pyrimidin-4-yl)-5-fluoro-2-methylphenyl)-4-cyclopropyl-2-fluorobenzamide]
Numbers of cells involved in lung anaphylaxis (BALF) (BALB/c mice): significantly reduced
Death (subjects with CSU; [4]): 0 n
Discontinued study due to an SAE(s) (subjects with CSU; [4]): 0 n
Discontinued study due to any AE(s) (subjects with CSU; [4]): 0 n
AE preferred term diarrhea (subjects with CSU; 100 mg b.i.d., N = 100 interim): 4%
AE preferred term dizziness (subjects with CSU; 100 mg b.i.d., N = 100 interim): 3%
AE preferred term gastroenteritis (subjects with CSU; 100 mg b.i.d., N = 100 interim): 3%
AE preferred term headache (subjects with CSU; 100 mg b.i.d., N = 100 interim): 6%
Bleeding events or events under SOC Blood and lymphatic system disorders (subjects with CSU; 100 mg b.i.d., N = 100 interim): no bleeding events
SOC Infections and infestations (subjects with CSU; 100 mg b.i.d., N = 100 interim): 14%
SOC Skin and subcutaneous tissue disorders (subjects with CSU; 100 mg b.i.d., N = 100 interim): 13%
Safety signal (subjects with CSU; 100 subjects, median exposure 17.86 weeks): No safety signal
ECG findings or QT of >500 ms (subjects with CSU; ES and CS, any patient): no significant ECG findings or QT of >500 ms
Deaths (subjects with CSU; ES, 100 mg b.i.d., N = 183): no deaths
Incidence of AESI bleeding (subjects with CSU; ES, 100 mg b.i.d., N = 183): 4.4%
Incidence of AESI cytopenias (subjects with CSU; ES, 100 mg b.i.d., N = 183): 0.5%
Incidence of AESI infections (subjects with CSU; ES, 100 mg b.i.d., N = 183): 23%
Skin and subcutaneous tissue disorders (AEs by primary system organ class) (subjects with CSU; ES, 100 mg b.i.d., N = 183, median 35.14 wks): 32 n
Discontinued study treatment due to AE(s) (subjects with CSU; [5]): 6 n
Headache (AEs by PT) (subjects with CSU; [5]): 6.6%
Infections and infestations (AEs by primary system organ class) (subjects with CSU; [5]): 23.0%
Patients with SAE(s) (subjects with CSU; [5]): 4 n
Skin and subcutaneous tissue disorders (AEs by primary system organ class) (subjects with CSU; [5]): 17.5%
Patients with newly occurring isolated ALT>3xULN (subjects with CSU; ES, normalized within 4 weeks): 1 patient
BTK occupancy kinetic in spleen and lung compared to effect on skin swelling (BTK [1]): very similar kinetic
Trough level inhibition of CD63 ([2]; MAD, 10 mg q.d., last day of dosing): 80%
Inhibition of CD203c+ basophils ([2]; MAD, 200 mg b.i.d): 67%
Inhibition of CD203c+ basophils ([2]; MAD, 400 mg q.d.): 63%
Inhibition of blood basophil activation measured by CD63 expression ([2]; MAD, daily dose greater than or equal to 50 mg, day 1-12 and several days beyond): full inhibition
Trough inhibition of CD63 ([2]; MAD, greater than or equal to 100 mg q.d., last day of dosing): greater than 97%
Inhibition of CD203c+ basophil activation marker ([2]; SAD, 200 mg cohort, at 8h): up to 79.4%
Inhibition of basophil activation measured by CD63 ([2]; SAD, doses of 60 mg): > 89%
Inhibition of basophil activation measured by CD63 ([2]; SAD, higher doses, 24 h post dose): ~100%
Minimal human effective dose (BTK [3]): 25 mg b.i.d
